Earlier results, collected in paper PMC6376154 (International Journal for Parasitology: Drugs and Drug …, 2019).
Like-named read-outs stand apart in the source and are kept apart here.

Test system: P. falciparum 3D7 asexual blood stage
Conditions: cited from earlier work
[1] = MMV Malaria Box data sheet, ref MMV data sheets
[2] = MMV Malaria Box data sheet, ref MMV data sheets, read-out: EC50_nM
[3] = source GSK, ref ChEMBL_NTD, read-out: CHEMBL EC50
[4] = ChEMBL-NTD value per source (GNF, GSK, StJude), several values in a cell follow the order of the sources, read-out: CHEMBL EC50
[5] = MMV Malaria Box sheet, ref MMV data sheets
[6] = MMV Malaria Box data sheet (supplement mmc2.xls), ref MMV data sheet, read-out: EC50_nM
[7] = value(s) per source (GSK, GNF, StJude), separated by semicolon, ref ChEMBL-NTD, read-out: CHEMBL EC50
[8] = MMV Malaria Box data sheet (supplement mmc2.xls), ref MMV data sheet
[9] = MMV Malaria Box sheet, ref MMV data sheets, read-out: EC50_nM
[10] = source GNF, ref ChEMBL_NTD, read-out: CHEMBL EC50
[11] = source StJude, ref ChEMBL_NTD, read-out: CHEMBL EC50

COc1ccc(Br)cc1C1Nc2ccc3ccccc3c2C2=C1C(=O)CC(c1ccccc1)C2 (stereo not drawn) [MMV020885]
percent_inh @ 5 uM [1]: 95%
EC50 [2]: 180 nM
EC50 [3]: 590 nM

Cc1ccc(-c2nc3ccccc3o2)cc1NCc1cc(Cc2ccccc2)ccc1O [MMV020912]
EC50 [4]: 1030 nM

CCC(=O)Nc1nnc(Cc2ccc(OC)c(OC)c2)s1 [MMV020942]
percent_inh @ 5 uM [5]: 47%
EC50 [3]: 910 nM

COc1cc(SC)ccc1C(=O)N1CCCC(C)C1 (stereo not drawn) [MMV056726]
percent_inh @ 2 uM (2 uM, MMV Malaria Box data sheet (supplement mmc2.xls), ref MMV data sheet): 45%
EC50 [6]: 4000 nM
EC50 [7]: 9810 nM

CN(C)c1ccc(N=Cc2ccc(N3CCOCC3)cc2)cc1 [MMV073843]
EC50 [4]: 175 nM

CCOc1ccc(C2N(C)c3ccccc3N2C)cc1 [MMV075490]
percent_inh @ 5 uM [8]: 72%
EC50 [6]: 941 nM

COc1cc2c(cc1OC)C1=NNC(=O)C1=NC(C)(C)C2 [MMV084940]
EC50 [9]: 1040 nM
EC50 [10]: 1580 nM

COc1ccccc1N=C1C(=O)c2ccccc2C(O)=C1N1CCCCC1 [MMV085203]
percent_inh @ 5 uM [1]: 98%
EC50 [2]: 5.3 nM
EC50 [10]: 28 nM

CCOc1ccc(-n2cc(-c3ccccc3)c3c(SCc4cc(C)ccc4C)ncnc32)cc1 [MMV085471]
percent_inh @ 5 uM [5]: 97%
EC50 [9]: 1700 nM
EC50 [10]: 2010 nM

CCCCCC(=O)N1c2ccccc2N=C2CC(c3ccc(OC)c(OC)c3)CC(O)=C2C1c1ccc(C(F)(F)F)cc1 (stereo not drawn) [MMV085583]
percent_inh @ 5 uM [1]: 100%
EC50 [2]: 237 nM
EC50 [10]: 107 nM

Cc1ccc(C(=O)c2oc3ccc4c(C)cc(=O)oc4c3c2C)cc1 [MMV086103]
EC50 [4]: 1030 nM

COc1cc(CNCCc2ccc(Cl)cc2)cc(OC)c1O [MMV128432]
EC50 [4]: 6890 nM

CC(C)(C)c1ccc(C(=O)Nc2nc3ccccc3s2)cc1 [MMV142383]
percent_inh @ 5 uM [8]: 81%
EC50 [7]: 15000 nM

COc1ccc2nc(C)cc(Nc3ccccc3O)c2c1 [MMV274073]
EC50 [6]: 686 nM

CCn1nc(-c2ccc(C(=O)OC)cc2)nc2c(=O)n(C)c(=O)nc1-2 [MMV306025]
EC50 [6]: 693 nM

CCOc1ccccc1CN1CCc2nc3cc(C(C)(C)C)nn3c(O)c2C1 [MMV396595]
EC50 [9]: 1010 nM

CCOc1c(Cl)cc(CNCC(O)c2ccccc2)cc1OC (stereo not drawn) [MMV396632]
EC50 [9]: 1050 nM

CCOc1cc(CNC(C)C(O)c2ccccc2)cc(Cl)c1OCC (stereo not drawn) [MMV396633]
EC50 [6]: 1240 nM

Cc1cc(N2CCCC2)nc(Nc2ccc(NC(=O)CCc3ccccc3)cc2)n1 [MMV396669]
EC50 [9]: 1070 nM

O=C(NCC(c1ccsc1)N1CCCCCC1)c1ccc(C(F)(F)F)cc1 (stereo not drawn) [MMV396672]
EC50 [2]: 433 nM

O=C(CSc1nccn2nc(-c3ccccc3)cc12)Nc1cc(C(F)(F)F)ccc1Cl [MMV396678]
EC50 [2]: 218 nM

COc1ccc(-c2cc3c(SCC(=O)Nc4cc(C(F)(F)F)ccc4Cl)nccn3n2)cc1 [MMV396679]
EC50 [2]: 89.9 nM

Cc1ccc(-c2cc3c(SCC(=O)Nc4cc(C(F)(F)F)ccc4Cl)nccn3n2)cc1 [MMV396680]
EC50 [2]: 92.8 nM

Cc1cc(NC(=O)c2cccc(C(F)(F)F)c2)n(-c2nc(-c3ccc4c(c3)OCO4)cs2)n1 [MMV396681]
EC50 [6]: 959 nM

C[n+]1c2ccccc2nc2ccc(NCCO)cc21 [MMV396693]
EC50 [2]: 296 nM

CCN(CC)CCNc1ncnc2c1[nH]c1ccc(Cl)cc12 [MMV396703]
EC50 [2]: 406 nM

CN1CCN(c2ncnc3c2[nH]c2ccc(Cl)cc23)CC1 [MMV396704]
EC50 [9]: 1190 nM

COc1cccc(Cn2c(Oc3ccccc3)nc3c2c(=O)n(C)c(=O)n3C)c1 [MMV396705]
EC50 [9]: 1390 nM

CC1(c2ccccc2)Nc2ccccc2-c2nc3ccccc3n21 (stereo not drawn) [MMV396715]
EC50 [9]: 1730 nM

COc1cccc(C2(C)Nc3ccccc3-c3nc4ccccc4n32)c1 (stereo not drawn) [MMV396719]
EC50 [6]: 1150 nM

OC(CNCC1CCCO1)Cn1c2ccc(Cl)cc2c2cc(Cl)ccc21 (stereo not drawn) [MMV396736]
EC50 [6]: 1060 nM

CC(C)CNC(=O)c1c(N)n(CCc2ccccc2F)c2nc3ccccc3nc12 [MMV396744]
EC50 [6]: 832 nM

COc1ccc2c(c1)C1(Nc3ccccc3-c3nc4ccccc4n31)C(=O)N2 (stereo not drawn) [MMV396749]
EC50 [9]: 928 nM

CC(C)(C)CC(C)(C)NCC(O)COc1ccc(Cl)cc1Cl (stereo not drawn) [MMV396794]
EC50 [6]: 1160 nM

COc1ccc(-c2c(C)nn3c(N)c(C#N)cnc23)cc1OC [MMV396797]
EC50 [2]: 477 nM

Cc1cccc(-n2ncc3c(=O)[nH]c(-n4nc(C)cc4NC(=O)c4cc5ccccc5o4)nc32)c1 [MMV403679]
EC50 [6]: 929 nM

CCN(CC)CCCNc1ccnc2cc3ccccc3cc12 [MMV665783]
percent_inh @ 5 uM [5]: 90%
EC50 [10]: 33.8 nM

CC(C)(C)c1ccc(O)c(CNC2CCCCC2)c1 [MMV665785]
percent_inh @ 5 uM [1]: 96%
EC50 [2]: 161 nM
EC50 [10]: 250 nM
EC50 [3]: 264 nM

O=c1cc(NC2CCN(CCCc3ccccc3)CC2)c2cc(Cl)ccc2o1 [MMV665786]
percent_inh @ 5 uM [5]: 97%
EC50 [9]: 846 nM
EC50 [10]: 408 nM

CC(NCc1ccccc1)c1cc(Cl)ccc1O (stereo not drawn) [MMV665789]
percent_inh @ 5 uM [8]: 95%
EC50 [6]: 603 nM
EC50 [7]: 592 nM

FC(F)(F)c1cccc(Nc2nc3ccccc3nc2Nc2cccc(C(F)(F)F)c2)c1 [MMV665794]
percent_inh @ 5 uM [5]: 99%
EC50 [9]: 313 nM
EC50 [3]: 137 nM

CCOc1cc(Br)c(C(C)NC(=O)c2cccc(OC)c2)cc1OCC (stereo not drawn) [MMV665796]
percent_inh @ 5 uM [8]: 96%
EC50 [6]: 1430 nM
EC50 [7]: 168 nM

CCCCOC(=O)c1ccc(Nc2cc(C)nc3ccc(OC)cc23)cc1 [MMV665797]
percent_inh @ 5 uM [5]: 99%
EC50 [9]: 584 nM
EC50 [3]: 640 nM

FC(F)(F)c1cccc(Nc2nc(-c3ccccc3)nc3ncccc23)c1 [MMV665798]
percent_inh @ 5 uM [8]: 74%
EC50 [7]: 802 nM

COc1ccc(C(=O)Nc2ccc(Cl)cc2C(=O)Nc2ccncc2)cc1 [MMV665799]
percent_inh @ 5 uM [8]: 93%
EC50 [7]: 822 nM

CCOc1cc(Cl)c(C(C)NC(=O)c2cccc(OC)c2)cc1OCC (stereo not drawn) [MMV665803]
percent_inh @ 5 uM [8]: 98%
EC50 [6]: 728 nM
EC50 [7]: 956 nM

CCOc1ccc(-c2nonc2NC(=O)c2cccc(C)c2)cc1OCC [MMV665805]
percent_inh @ 5 uM [1]: 86%
EC50 [2]: 117 nM
EC50 [11]: 61.9 nM

Cc1c(C)n(CC(O)CNC2CCCCC2C)c2ccccc12 (stereo not drawn) [MMV665806]
percent_inh @ 5 uM [5]: 96%
EC50 [9]: 769 nM
EC50 [11]: 527 nM

O=C(Nc1cccc(C(F)(F)F)c1)c1cc(Cl)ccc1O [MMV665807]
percent_inh @ 5 uM [8]: 93%
EC50 [7]: 973 nM

Oc1ccc(Br)cc1CN1CCN(Cc2ccc(Cl)cc2)CC1 [MMV665809]
EC50 [4]: 1480 nM

CCc1ccc(CNCC(O)c2ccccc2)cc1 (stereo not drawn) [MMV665812]
EC50 [4]: 2170 nM

CCOC(=O)c1cnc2ccc(OC)cc2c1NCc1ccccc1 [MMV665813]
EC50 [4]: 2770 nM

CC(C)(C)CC(C)(C)NCC(O)COc1ccc2c(c1)CCC2 (stereo not drawn) [MMV665817]
percent_inh @ 5 uM [1]: 78%
EC50 [11]: 4420 nM

Cn1c(C(=O)c2cccc3ccccc23)nc2ccccc21 [MMV665824]
EC50 [4]: 6.92 nM

COc1cccc(NC(=O)Cn2c(C)c(C#N)c3ccccc32)c1 [MMV665826]
percent_inh @ 5 uM [8]: 95%
EC50 [6]: 1090 nM

CCOC(=O)c1cn(CC)c2cc(N3CCCCC3)c(F)cc2c1=O [MMV665827]
percent_inh @ 5 uM [1]: 100%
EC50 [2]: 119 nM
EC50 [10]: 166 nM
EC50 [3]: 125 nM

CC1CC2=C(CC1CNCCCN(C)C)C(C)(C)CCC2 (stereo not drawn) [MMV665830]
EC50 [4]: 250 nM
